Data taken from PMC7421780 (Future Medicinal Chemistry, 2020).
pIC50: −log10 of the molar value. Read-outs that look alike come from different tables or passages of the source.

What was measured:
NRP Mtb H37Rv = test: microbe, parasite or virus in culture; type: cell-based; details: Mycobacterium tuberculosis
CYP3A4 = CYP3A4 (Homo sapiens, UniProt P08684); test: Cytochrome P450 inhibition; type: in vitro ADME
in vitro [1] = details: human
Mtb H37Rv [2] = test: Secondary assay: MIC, IC50 and IC90 repeated at lower starting concentrations; type: cell-based; details: Mycobacterium tuberculosis
CYP2D6 = CYP2D6 (Homo sapiens, UniProt P10635); test: biochemical
CYP2C19 = CYP2C19 (Homo sapiens, UniProt P33261); test: biochemical
CYP2C9 = CYP2C9 (Homo sapiens, UniProt P11712); test: Cytochrome P450 inhibition; type: in vitro ADME
Mycobacterium abscessus = test: MIC, IC50, IC90 against nontuberculous mycobacteria; type: cell-based
Mtb H37Rv [3] = test: Primary screen: MIC, IC50 and IC90 under aerobic conditions; type: cell-based; details: Mycobacterium tuberculosis
CYP2B6 = target: T1, CYP2B6 (Homo sapiens, UniProt P20813); test: biochemical
T1 sequence (P20813 1-491): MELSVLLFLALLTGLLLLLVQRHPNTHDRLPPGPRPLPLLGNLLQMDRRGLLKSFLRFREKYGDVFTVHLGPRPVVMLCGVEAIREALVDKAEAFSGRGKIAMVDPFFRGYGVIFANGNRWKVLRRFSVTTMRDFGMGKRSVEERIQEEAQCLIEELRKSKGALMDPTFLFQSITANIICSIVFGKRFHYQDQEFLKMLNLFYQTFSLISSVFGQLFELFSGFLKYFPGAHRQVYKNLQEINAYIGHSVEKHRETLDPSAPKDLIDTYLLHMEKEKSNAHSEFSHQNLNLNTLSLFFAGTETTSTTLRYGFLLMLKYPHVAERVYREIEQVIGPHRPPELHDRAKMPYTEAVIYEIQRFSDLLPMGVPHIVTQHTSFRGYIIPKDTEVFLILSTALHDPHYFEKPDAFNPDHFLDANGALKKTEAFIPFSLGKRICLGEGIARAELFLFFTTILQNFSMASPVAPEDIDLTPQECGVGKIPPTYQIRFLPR

[4] = Caco-2 cell monolayer permeability assay; details: human, Caco-2
[5] = In vitro microsomal stability assay; details: human, microsomes
in vitro [6] = details: human; remark: listed apart in the source
Mtb H37Rv [7] = test: Minimal bactericidal concentration; type: cell-based, Mycobacterium tuberculosis; details: Mtb H37Rv aerobic
Mycobacterium avium = test: MIC against nontuberculous mycobacteria, Alamar blue; type: cell-based
intracellular Mtb H37Rv = test: microbe, parasite or virus in culture; type: cell-based; details: Mycobacterium tuberculosis
[8] = Human plasma, equilibrium dialysis
HepG2 cytotoxicity = type: cell-based; details: human, HepG2 cells
CYP2C8 = target: T2, CYP2C8 (Homo sapiens, UniProt P10632); test: biochemical
T2 sequence (P10632 1-490): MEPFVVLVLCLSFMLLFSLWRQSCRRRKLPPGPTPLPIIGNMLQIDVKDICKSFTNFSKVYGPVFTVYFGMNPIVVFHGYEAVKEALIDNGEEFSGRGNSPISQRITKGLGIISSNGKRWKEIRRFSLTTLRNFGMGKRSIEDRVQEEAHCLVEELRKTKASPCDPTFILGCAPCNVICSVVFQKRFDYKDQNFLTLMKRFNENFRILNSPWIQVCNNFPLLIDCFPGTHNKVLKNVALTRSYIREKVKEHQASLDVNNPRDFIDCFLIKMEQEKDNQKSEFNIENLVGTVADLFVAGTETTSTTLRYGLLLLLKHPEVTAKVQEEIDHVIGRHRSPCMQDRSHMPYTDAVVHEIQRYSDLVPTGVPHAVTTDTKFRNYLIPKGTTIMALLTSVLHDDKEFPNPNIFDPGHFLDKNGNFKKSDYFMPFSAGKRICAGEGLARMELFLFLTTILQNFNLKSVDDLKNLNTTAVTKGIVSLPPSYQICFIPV

Sequence of CYP3A4 (P08684 whole entry): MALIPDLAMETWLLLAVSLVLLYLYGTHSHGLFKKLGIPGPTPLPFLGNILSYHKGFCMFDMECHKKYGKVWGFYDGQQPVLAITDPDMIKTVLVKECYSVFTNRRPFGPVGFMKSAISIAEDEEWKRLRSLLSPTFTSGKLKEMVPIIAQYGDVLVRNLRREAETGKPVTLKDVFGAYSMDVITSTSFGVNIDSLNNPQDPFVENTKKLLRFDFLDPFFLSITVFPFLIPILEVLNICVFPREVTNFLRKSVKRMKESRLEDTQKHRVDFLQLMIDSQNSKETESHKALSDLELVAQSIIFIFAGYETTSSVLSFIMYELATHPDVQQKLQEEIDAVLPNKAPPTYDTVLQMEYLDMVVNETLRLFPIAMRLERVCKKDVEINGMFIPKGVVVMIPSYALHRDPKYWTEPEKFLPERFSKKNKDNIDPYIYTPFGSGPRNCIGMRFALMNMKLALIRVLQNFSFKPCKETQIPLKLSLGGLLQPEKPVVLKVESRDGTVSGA
Sequence of CYP2D6 (P10635 whole entry): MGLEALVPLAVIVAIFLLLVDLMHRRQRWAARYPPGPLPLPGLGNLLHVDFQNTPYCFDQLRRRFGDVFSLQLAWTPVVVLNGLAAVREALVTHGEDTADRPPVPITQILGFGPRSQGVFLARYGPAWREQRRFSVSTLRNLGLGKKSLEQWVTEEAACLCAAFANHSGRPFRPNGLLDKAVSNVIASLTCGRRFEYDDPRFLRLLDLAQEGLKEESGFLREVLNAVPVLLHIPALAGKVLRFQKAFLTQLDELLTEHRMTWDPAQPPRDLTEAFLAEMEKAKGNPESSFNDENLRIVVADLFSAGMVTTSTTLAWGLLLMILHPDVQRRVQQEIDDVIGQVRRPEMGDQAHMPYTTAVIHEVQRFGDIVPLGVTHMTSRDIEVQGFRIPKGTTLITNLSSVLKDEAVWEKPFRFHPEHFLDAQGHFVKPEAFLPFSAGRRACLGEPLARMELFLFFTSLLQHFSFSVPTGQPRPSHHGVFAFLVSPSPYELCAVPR
Sequence of CYP2C19 (P33261 whole entry): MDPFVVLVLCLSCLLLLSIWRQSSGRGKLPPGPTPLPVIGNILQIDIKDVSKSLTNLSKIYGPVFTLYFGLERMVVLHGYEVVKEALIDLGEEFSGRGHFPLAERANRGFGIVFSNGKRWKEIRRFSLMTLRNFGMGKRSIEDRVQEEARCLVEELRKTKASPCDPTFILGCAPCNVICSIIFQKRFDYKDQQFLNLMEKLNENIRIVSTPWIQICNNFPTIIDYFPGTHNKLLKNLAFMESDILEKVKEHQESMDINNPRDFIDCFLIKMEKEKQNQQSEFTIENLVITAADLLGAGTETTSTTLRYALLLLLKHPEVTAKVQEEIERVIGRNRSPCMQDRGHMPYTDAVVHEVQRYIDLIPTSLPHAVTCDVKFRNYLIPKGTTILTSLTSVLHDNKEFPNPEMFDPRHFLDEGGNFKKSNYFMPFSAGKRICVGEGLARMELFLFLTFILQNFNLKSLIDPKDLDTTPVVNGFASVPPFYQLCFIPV
Sequence of CYP2C9 (P11712 whole entry): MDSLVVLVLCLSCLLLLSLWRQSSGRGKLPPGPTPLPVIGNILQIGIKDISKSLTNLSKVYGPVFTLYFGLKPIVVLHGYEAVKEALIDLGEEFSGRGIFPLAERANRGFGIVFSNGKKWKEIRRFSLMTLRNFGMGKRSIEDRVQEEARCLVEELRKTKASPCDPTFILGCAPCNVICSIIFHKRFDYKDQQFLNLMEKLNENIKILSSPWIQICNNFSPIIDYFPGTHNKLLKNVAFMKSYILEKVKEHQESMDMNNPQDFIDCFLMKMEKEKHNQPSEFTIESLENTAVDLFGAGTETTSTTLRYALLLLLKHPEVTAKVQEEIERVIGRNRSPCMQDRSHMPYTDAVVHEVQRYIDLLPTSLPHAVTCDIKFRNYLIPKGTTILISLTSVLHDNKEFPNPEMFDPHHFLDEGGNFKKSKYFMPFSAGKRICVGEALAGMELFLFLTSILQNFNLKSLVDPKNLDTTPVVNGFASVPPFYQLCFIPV

## O=C(C[n+]1cn(Cc2cccc(Cn3c[n+](CC(=O)c4ccc([N+](=O)[O-])cc4)c4ccccc43)n2)c2ccccc21)c1ccc([N+](=O)[O-])cc1.[Br-].[Br-] [Compound 6f, 1,1′-(pyridine-2,6-diylbis(methylene))bis(3-(2-(4-nitrophenyl)-2-oxoethyl)-1H-benzo[d]imidazol-3-ium) bromide]
NRP Mtb H37Rv; Low oxygen
  pIC50: 5.01
  IC90: 33 µM
  MIC: 120 µM
NRP Mtb H37Rv; Normal oxygen
  pIC50: 5.00
  IC90: 25 µM
  MIC: 71 µM
CYP3A4
  pIC50: 5.18
CYP3A4; IC50 CYP3A4 – midazolam, probe substrate midazolam, human liver microsomes
  pIC50: < 4.70
In vitro [1]
  pIC50: < 4.30
Mtb H37Rv [2]
  pIC50: 4.96
  IC90: 20 µM
Mtb H37Rv [2]; read-out: MIC aerobic condition
  MIC: 16 µM
CYP2D6
  pIC50: 6.04
CYP2C19
  pIC50: 5.06
CYP2C9
  pIC50: < 4.70
Mycobacterium abscessus
  activity against M. abscessus (in words): showed activity
Mycobacterium abscessus; Mycobacteroides abscessus
  pIC50: 4.25
  IC90: 68 µM
  MIC: 88 µM
Mtb H37Rv [3]
  pIC50: 4.85
  IC90: 21 µM
  MIC: 24 µM
CYP2B6
  pIC50: < 4.70
[4]
  Papp B→A: 0.095 ×10⁻⁶ cm/s
  efflux ratio: 0.2
[5]; NADPH-dependent T1/2, Human
  half-life at 1 μM: 1.77 h
[5]; NADPH-free CLint
  microsomal CLint at 1 μM: < 12.8 µL/min/mg
[5]; NADPH-free T1/2, Human
  half-life at 1 μM: > 3 h
In vitro [6]
  recovery: 24.5%
In vitro [6]; plasma
  fraction unbound: 0.078
Mtb H37Rv [7]
  mechanism of action (bacteriostatic or bactericidal): bactericidal
Mycobacterium avium
  activity against M. avium (in words): moderate activity
Mycobacterium avium; Mycobacterium avium
  MIC: 200 µM
Intracellular Mtb H37Rv; THP-1, read-out: IC50 intracell
  pIC50: 4.85
Intracellular Mtb H37Rv; THP-1, read-out: IC90 intracell
  IC90: 26 µM
[8]
  Mean plasma fraction unbound: 7.8%
HepG2 cytotoxicity
  IC50 at 72 h: > 100 µM
CYP2C8
  pIC50: < 4.70
